Key:
[1] = test system: GM-CSF signaling; experiment: GH/GM-CSF flow cytometric test in whole human blood with IM-9 lymphoblasts; conditions: selectivity versus another Jak2-dependent cytokine
Experimental: This allowed simultaneous testing of GH- and GM-CSF activity. The GH/GM-CSF cytometric test added two important criteria to GH signaling: The test prioritized compounds that target the GH-driven signaling at the expense of another Jak2-dependent cytokine signaling (GM-CSF); equally important: it selected compounds that exert a rapid effect on the GH/IGF-axis as the response time for STAT5 phosphorylation was limited to 20-30 min.
(§1) GH-induced GH-GHR-Jak2 signaling was probed by GHR pY staining in concentration series (0-20 µM, 1 h drug-treated, 10 min GH).

[2] = test system: triple negative human breast cancer cells (MDA-MB-231); experiment: Proliferation test (DNA in vital cells, dose-response); type: cell-based; conditions: Homo sapiens; inhibition of proliferation of MDA-MB-231, tested after 24, 48, 72h in cell culture
Experimental: The EC50 refers to the inhibitory effect of the compounds on the proliferation of triple negative human breast cancer cells (MDA-MB-231), tested after 24, 48, 72h in cell culture.
We used the triple-negative human breast cancer line, MDA-MB-231 and quantified DNA in vital cells. Dose-response curves were made after 24, 48 & 72 h. […] The compound with the lowest EC50 (Compound #1) was tested in vivo.

[3] = test system: MDA-MB-231 cells; experiment: In vivo test in mice xenografted with MDA-MB-231 cells; set-up: species or system Athymic nude BALB/c mice
Description: • Figure 1. Diagram of the primary screening method for candidate compounds. Depicted are GHR fos-zipped cytosolic tails, amino acid 288-638 with fos zippers (fos), box-1 sequence (B1), and Jak2 (FERM, SH2, pseudokinase and kinase domains), as described in Nespital et al., 2016; Sedek et al, 2014). If the dimerized tails and Jak2 bind via FERM and Box-1, Jak2 gets activated and phosphorylates itself, the dimerized tails and STAT5b. After phosphorylation of specific tyrosine residues on GHR, Jak2 and STAT5, the complex dissociates; as fos-pGHRct is protease-resistant it accumulates in the cells. Unphosphorylated fos-GHRct is rapidly degraded. Steady state levels of Fos-pGHRct are lower if its synthesis, degradation or Jak2-interaction is changed by a candidate compound. The cell-based assay was performed in y2A cells carrying inducible Jak2 (iJak2) or binding-deficient iJak2 Y119E (as control). • Figure 2. Effect of test compounds on mice, xenografted with MDA-MB-231 cells. Athymic nude BALB/c mice were transplanted with luciferase-expressing MDA-MB-231 cells at week -5. Starting at week 0, compound #1 was injected 3 times a week for 3 weeks; group size: 9, intraperitoneally (IP) at 1 or 5 mg/kg as indicated. Anesthetized mice were IP-injected with luciferin and the bioluminescence was imaged. The animals received the last drug injections 2 hours before they were euthanized, then blood was collected and livers were weighed. […] Organoids were cultured in Matrigel in the presence of a variety of growth factors, Wnt activators and MPA. Organoids were treated for 48 h with 100 nM of compound #1 followed by staining with DAPI (nuclei) or specific antibodies against GHR or cytokeratin 8. • Figure 4A: Effect of compounds on GHR levels in Hek293T cells. […] The amounts of GHR both at the plasma membrane (PM) and in the endoplasmic reticulum (ER) were decreased in the cells treated with the compounds. […] Decrease of the pY signal in lanes 3 and 4 in the middle panel reflects the decrease of GHR protein levels (in the upper panel). […] Translation of other proteins was not affected by the drugs (not shown). We used a cell-free translation system based on HeLa cell extract (Promega) Empty vector (pcDNA) was used as control. The blots were detected with an anti-GHR antibody raised in rabbits against the cytosolic tails. • Figure 5: Schematic view of GHR signaling. Top panel, downstream signaling pathways with their main expressed genes and enzymatic activities; middle panel, resulting effect; lower panel, major diseased states if unbalanced.
Mice were xenografted with MDA-MB-231 cells as described. This cell line was chosen as it is GH-responsive, […] can block doxorubicin-induced apoptosis, it lacks E-cadherin due to hypermethylation, proliferates fast, has a basal-like expression profile and originates from infiltrating ductal breast cancer (Christgen and Derksen, 2015; Hollestelle et al., 2013; Minoia et al., 2012).
We used a protocol of 3 injections per week (1 and 5 mg/kg) during 3 weeks (9 mice/group). The treatment started after 5 weeks at a tumor volume of about 60 mm^3, and the animals were killed after 3 weeks at a tumor volume of 130 mm^3 in the control group.

[4] = test system: GHR; experiment: GHR protein levels and phosphorylation in GHR-expressing HEK293T cells transfected with Jak2 (blot, Figure 4A); type: cell-based, rabbit; conditions: overnight treatment, compounds 10 µM; 90 ng GH/ml 10 min before lysis
Description: • Figure 1. […] Unphosphorylated fos-GHRct is rapidly degraded.

[5] = test system: fos-zippered GHR cytosolic tails; experiment: In vitro translation in HeLa cell-free system (Figure 4B); type: biochemical; conditions: HeLa cell extract, increasing concentrations
Description: • Figure 1. Diagram of the primary screening method for candidate compounds. Depicted are GHR fos-zipped cytosolic tails, amino acid 288-638 with fos zippers (fos), box-1 sequence (B1), and Jak2 (FERM, SH2, pseudokinase and kinase domains), as described in Nespital et al., 2016; Sedek et al, 2014). If the dimerized tails and Jak2 bind via FERM and Box-1, Jak2 gets activated and phosphorylates itself, the dimerized tails and STAT5b. After phosphorylation of specific tyrosine residues on GHR, Jak2 and STAT5, the complex dissociates; as fos-pGHRct is protease-resistant it accumulates in the cells. Unphosphorylated fos-GHRct is rapidly degraded. Steady state levels of Fos-pGHRct are lower if its synthesis, degradation or Jak2-interaction is changed by a candidate compound. The cell-based assay was performed in y2A cells carrying inducible Jak2 (iJak2) or binding-deficient iJak2 Y119E (as control). • Figure 2. Effect of test compounds on mice, xenografted with MDA-MB-231 cells. Athymic nude BALB/c mice were transplanted with luciferase-expressing MDA-MB-231 cells at week -5. Starting at week 0, compound #1 was injected 3 times a week for 3 weeks; group size: 9, intraperitoneally (IP) at 1 or 5 mg/kg as indicated. […] The blots were detected with an anti-GHR antibody raised in rabbits against the cytosolic tails. • Figure 5: Schematic view of GHR signaling. […]

[6] = test system: GH-GHR-Jak2 signaling; experiment: GH-induced signaling in Hek293T cells expressing GHR (pY staining, concentration series)
Experimental: as §1

[7] = test system: dog breast cancer cells, grown as organoids; experiment: Growth of canine mammary tumor organoids; type: cell-based; conditions: Canis lupus familiaris; organoids in Matrigel; read-out: EC50 growth inhibition of dog breast cancer organoids
Experimental: Next, we determined that also growth of dog breast cancer cells, grown as organoids, could be inhibited with the compounds according to the invention, in the best case (compound #1) with an EC50 of about 20 nM, see also figure 3.
Canine mammary organoids were derived from tumor cells and cultured in Matrigel in the presence of a variety of growth factors, Wnt activators and MPA (Timmermans-Sprang et al., 2017). Organoids were treated for 48 h with 100 nM of compound #1, followed by staining with DAPI (nuclei) or specific antibodies against GHR or cytokeratin 8 (CK8).

[8] = IP 1 or 5 mg/kg, 3 times a week for 3 weeks

EC50 [2]: 30 nM | EC50 ([6]; Oryctolagus cuniculus, HEK-293T): ~300 nM | EC50 [7]: ~20 nM
Structure (SMILES): Cc1nc(N)nc(N)c1C=CC1(c2ccc(C(F)(F)F)cc2)CC1 [Compound #1, 6-methyl-5-[2-{1-[4-(trifluoromethyl)phenyl]cyclopropyl}ethenyl]pyrimidine-2,4-diamine]
activity towards GM-CSF signaling [1]: inactive | significantly lowered liver weight [3, 8]: 85% | total body weights [3, 8]: remained the same | significantly lowered serum IGF-1 ([3]; IP 1 or 5 mg/kg, 3 times a week for 3 weeks, blood 2 hours after last injection): 27% | level of plasma IGF-1 (figure 2C) ([3]; treated vs control mice): decreased | liver weight (figure 2D) ([3]; treated vs control mice): reduced | amounts of GHR at the plasma membrane (PM) and in the endoplasmic reticulum (ER) / GHR protein levels [4]: decreased | effective concentrations on in vitro translation of fos-zippered GHR cytosolic tails [5]: > 0.1 µM | phosphorylation of fos-GHRct (fos-pGHRct), of the active site of Jak2 (p1007/1008) and of STAT5 (pSTAT5) [6]: inhibited

Source: patent EP3811945A1, “COMPOUNDS FOR TREATING AND PREVENTING GROWTH HORMONE RECEPTOR-DEPENDENT CONDITIONS” (UMC Utrecht Holding B.V., priority 2019, dated 2021)
